The values that follow come from patent US9056832B2, “Pyridine compounds and the users thereof” (Purdue Pharma L.P., priority 2010, dated 2015).

One assay deals with human Nav1.7 (Homo sapiens (Human), UniProt Q15858). The assay is described as follows: FLIPR or FLIPR TETRA sodium dye assay with KCl and test article pre-incubation. To be noted: read-out: Nav1.7 IC50 (μM) ± SEM. Type of assay: cell-based.
Chain of human Nav1.7 (Q15858 other isoform, or with tags, fused parts or gaps): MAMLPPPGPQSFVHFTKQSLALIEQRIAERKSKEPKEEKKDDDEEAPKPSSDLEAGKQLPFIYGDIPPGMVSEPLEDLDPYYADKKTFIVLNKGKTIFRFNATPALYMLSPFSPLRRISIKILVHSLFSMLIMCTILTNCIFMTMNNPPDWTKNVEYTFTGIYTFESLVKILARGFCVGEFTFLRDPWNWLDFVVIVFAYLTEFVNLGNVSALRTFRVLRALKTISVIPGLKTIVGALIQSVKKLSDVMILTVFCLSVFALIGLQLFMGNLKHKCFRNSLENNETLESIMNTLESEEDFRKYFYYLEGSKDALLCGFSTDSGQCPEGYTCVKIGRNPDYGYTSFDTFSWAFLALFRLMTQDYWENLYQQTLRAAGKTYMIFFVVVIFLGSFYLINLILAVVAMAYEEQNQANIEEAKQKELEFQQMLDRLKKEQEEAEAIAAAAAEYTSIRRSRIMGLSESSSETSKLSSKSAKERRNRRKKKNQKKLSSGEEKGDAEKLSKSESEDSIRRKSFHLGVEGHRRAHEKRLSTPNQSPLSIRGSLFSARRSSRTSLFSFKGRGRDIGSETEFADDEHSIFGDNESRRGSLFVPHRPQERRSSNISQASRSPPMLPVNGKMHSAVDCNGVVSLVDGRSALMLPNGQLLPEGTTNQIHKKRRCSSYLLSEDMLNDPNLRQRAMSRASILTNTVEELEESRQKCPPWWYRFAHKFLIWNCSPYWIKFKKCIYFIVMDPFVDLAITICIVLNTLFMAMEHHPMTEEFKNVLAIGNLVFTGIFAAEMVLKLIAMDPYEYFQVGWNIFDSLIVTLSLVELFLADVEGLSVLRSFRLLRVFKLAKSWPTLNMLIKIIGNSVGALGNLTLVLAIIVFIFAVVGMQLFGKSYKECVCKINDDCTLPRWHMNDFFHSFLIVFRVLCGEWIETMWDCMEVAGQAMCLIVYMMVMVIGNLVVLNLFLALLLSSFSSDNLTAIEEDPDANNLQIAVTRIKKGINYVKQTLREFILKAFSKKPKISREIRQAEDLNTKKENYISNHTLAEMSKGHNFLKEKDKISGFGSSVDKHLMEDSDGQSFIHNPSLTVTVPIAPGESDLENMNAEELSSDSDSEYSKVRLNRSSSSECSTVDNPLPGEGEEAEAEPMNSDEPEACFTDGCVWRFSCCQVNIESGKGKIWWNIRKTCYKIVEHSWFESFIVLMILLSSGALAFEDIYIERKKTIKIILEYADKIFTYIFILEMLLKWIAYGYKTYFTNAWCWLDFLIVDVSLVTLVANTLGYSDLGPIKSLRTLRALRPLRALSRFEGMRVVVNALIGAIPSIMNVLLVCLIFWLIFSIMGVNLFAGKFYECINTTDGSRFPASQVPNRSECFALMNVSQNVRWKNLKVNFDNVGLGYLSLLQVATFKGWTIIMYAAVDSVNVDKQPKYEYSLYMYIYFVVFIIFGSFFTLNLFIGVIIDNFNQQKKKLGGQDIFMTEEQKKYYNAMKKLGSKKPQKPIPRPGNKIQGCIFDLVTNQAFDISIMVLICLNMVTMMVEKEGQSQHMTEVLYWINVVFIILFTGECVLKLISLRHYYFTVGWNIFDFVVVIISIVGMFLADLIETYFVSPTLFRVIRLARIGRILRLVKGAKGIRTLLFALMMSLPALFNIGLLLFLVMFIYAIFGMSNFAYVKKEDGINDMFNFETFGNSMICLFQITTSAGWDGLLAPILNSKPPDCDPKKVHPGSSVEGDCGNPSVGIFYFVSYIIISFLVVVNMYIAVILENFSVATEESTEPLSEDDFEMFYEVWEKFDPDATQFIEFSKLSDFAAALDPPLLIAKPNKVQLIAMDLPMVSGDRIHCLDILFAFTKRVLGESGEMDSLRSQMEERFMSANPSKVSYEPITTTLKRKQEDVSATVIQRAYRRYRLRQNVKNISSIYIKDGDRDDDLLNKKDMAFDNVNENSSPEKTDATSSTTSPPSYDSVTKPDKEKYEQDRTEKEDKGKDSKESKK
Take `NC(=O)c1cc(C2=CCNCC2)cc(-c2ccc(Oc3ccc(F)cc3)cc2)n1` [compound 122, 6-(4-(4-fluorophenoxy)phenyl)-1′,2′,3′,6′-tetrahydro-[4,4'-bipyridine]-2-carboxamide]: the half-inhibitory concentration (IC50) (as a rule, the midpoint of a concentration-inhibition curve) is 0.14 ± 0.03 µM. Still for that read-out and setting: in the case of `O=S(=O)(Nc1ccc(F)cc1)c1ccc(-c2cccc([C@H](O)CO)n2)cc1` [compound 124, (S)-4-(6-(1,2-dihydroxyethyl)pyridin-2-yl)-N-(4-fluorophenyl) benzenesulfonamide] it was 2.5 ± 0.34 µM. With `N#Cc1ccc(Oc2ccc(-c3cc([C@@H](O)CO)cc(C(N)=O)n3)cc2)cc1C(F)(F)F` [compound 127, (R)-6-(4-(4-cyano-3-(trifluoromethyl)phenoxy)phenyl)-4-(1,2-dihydroxyethyl) picolinamide], the IC50 was determined as 1.13 ± 0.11 µM. Still for that read-out and setting: the value for `NC(=O)c1cc(O)cc(-c2ccc(Oc3ccc(F)cc3)cc2)n1` [compound 136, 6-(4-(4-fluorophenoxy)phenyl)-4-hydroxy picolinamide] was over 20 µM.

Staying with this assay, now noted: recombinant human Nav1.7 in HEK293 cells; CoroNa Green sodium dye; veratridine + scorpion venom; read-out: Nav1.7 IC50 (μM) ± SEM.
As for `NC(=O)c1cc([C@@H](O)CO)cc(-c2ccc(Oc3cc(Cl)ccc3F)cc2)n1` [compound 123, (R)-6-(4-(5-chloro-2-fluorophenoxy)phenyl)-4-(1,2-dihydroxyethyl) picolinamide], the IC50 is 0.17 ± 0.03 µM. For the molecule `O=C(NC(CO)CO)c1cc(-c2ccc(Oc3ccc(F)cc3)cc2)cc(Cl)n1` [compound 125, 6-chloro-N-(1,3-dihydroxypropan-2-yl)-4-(4-(4-fluorophenoxy)phenyl)picolinamide], the half-maximal inhibitory concentration (IC50) is 0.77 ± 0.13 µM.

Consider `N#Cc1cccc2c1ccn2-c1cc(-c2ccc(Oc3ccc(F)cc3)cc2)cc(C(=O)O)n1` [compound 126, 6-(4-cyano-1H-indol-1-yl)-4-(4-(4-fluorophenoxy)phenyl) picolinic acid], for which the half-inhibitory concentration (IC50) amounted to 1.05 ± 0.13 µM. Take `NC(=O)c1cc(-c2ccc(Oc3ccc(F)cc3)cc2)cc(NC(CO)CO)n1` [compound 128, 6-((1,3-dihydroxypropan-2-yl)amino)-4-(4-(4-fluorophenoxy)phenyl) picolinamide]: the half-inhibitory concentration (IC50) came out at 1.29 ± 0.17 µM. On the same count and under the same terms, in the case of `C[C@H](O)[C@@H](O)c1cc(C(N)=O)nc(-c2ccc(Oc3ccc(F)cc3)cc2)c1` [compound 129, 4-((1S,2S)-1,2-dihydroxypropyl)-6-(4-(4-fluorophenoxy)phenyl)picolinamide] it was 1.74 ± 0.35 µM. For the molecule `O=C(O)c1ccc2ccn(-c3cc(C(=O)O)nc(-c4ccc(Oc5ccc(F)cc5)cc4)c3)c2c1` [compound 130, 1-(2-carboxy-6-(4-(4-fluorophenoxy)phenyl)pyridin-4-yl)-1H-indole-6-carboxylic acid], the half-maximal inhibitory concentration (IC50) was 2.47 ± 0.73 µM. Same read-out and setting: the value for `C[C@@H](O)[C@H](O)c1cc(C(N)=O)nc(-c2ccc(Oc3ccc(F)cc3)cc2)c1` [compound 131, 4-((1R,2R)-1,2-dihydroxypropyl)-6-(4-(4-fluorophenoxy)phenyl)picolinamide] was 2.78 ± 0.46 µM; that for `NC(=O)c1cc([C@@H](O)CO)cc(-c2ccc(Oc3ccc(C(F)(F)F)cn3)cc2)n1` [compound 132, (R)-4-(1,2-dihydroxyethyl)-6-(4-((5-(trifluoromethyl)pyridin-2-yl)oxy)phenyl)picolinamide] was 2.78 ± 0.75 µM. On the same count and under the same terms, the value for `NC(=O)c1cc(NC(CO)CO)cc(-c2ccc(Oc3ccc(F)cc3)cc2)n1` [compound 133, 4-((1,3-dihydroxypropan-2-yl)amino)-6-(4-(4-fluorophenoxy)phenyl) picolinamide] was 3.08 ± 0.59 µM. As for `NC(=O)c1cc(C[C@@H](O)CO)cc(-c2ccc(Oc3ccc(F)cc3)cc2)n1` [compound 134, (R)-4-(2,3-dihydroxypropyl)-6-(4-(4-fluorophenoxy)phenyl)picolinamide], the IC50 was 3.9 ± 0.34 µM. Same read-out and setting: the value for `NC(=O)c1cc(C[C@H](O)CO)cc(-c2ccc(Oc3ccc(F)cc3)cc2)n1` [compound 135, (S)-4-(2,3-dihydroxypropyl)-6-(4-(4-fluorophenoxy)phenyl)picolinamide] was 7.26 ± 0.34 µM; that for `O=S(=O)(Nc1ccc(-c2cccc([C@H](O)CO)n2)cc1)c1ccc(F)cc1` [compound 137, (S)-N-(4-(6-(1,2-dihydroxyethyl)pyridin-2-yl)phenyl)-4-fluorobenzene sulfonamide] was over 20 µM; that for `NC(=O)c1cc([C@H](O)CO)cc(-c2ccc(Oc3ccc(Cl)cc3F)cc2)n1` [compound 140, (S)-6-(4-(4-chloro-2-fluorophenoxy)phenyl)-4-(1,2-dihydroxyethyl) picolinamide] was 0.07 ± 0.01 µM. Same read-out and setting: in the case of `NC(=O)c1cc([C@@H](O)CO)cc(-c2ccc(Oc3ccc(Cl)cc3F)cc2)n1` [compound 141, (R)-6-(4-(4-chloro-2-fluorophenoxy)phenyl)-4-(1,2-dihydroxyethyl) picolinamide] it was 0.07 ± 0.01 µM. Still for that read-out and setting: in the case of `NC(=O)c1cc([C@@H](O)CO)cc(-c2cccc(Oc3ccc(F)cc3)c2)n1` [compound 142, 4-((R)-1,2-dihydroxy-ethyl)-6-[3-(4-fluoro-phenoxy)-phenyl]-pyridine-2-carboxylic acid amide] it was 5.3 ± 1.6 µM.

Regarding `NC(=O)c1cc(-c2ccc(Oc3ccc(F)cc3)cc2)cc(N(CC(=O)O)c2ccccc2)n1` [compound 143, ({6-Carbamoyl-4-[4-(4-fluoro-phenoxy)-phenyl]-pyridin-2-yl}phenyl-amino)-acetic acid], the IC50 was over 20 µM.

Take `NC(=O)c1cc(-c2ccc(Oc3ccc(F)cc3)cc2)cc(N(CCC(=O)O)c2ccccc2)n1` [compound 144, 3-({6-Carbamoyl-4-[4-(4-fluoro-phenoxy)-phenyl]-pyridin-2-yl}phenyl-amino)-propionic acid]: the IC50 was over 20 µM. As to `NC(=O)c1cc(N(CCC(=O)O)c2ccccc2)cc(-c2ccc(Oc3ccc(F)cc3)cc2)n1` [compound 145, 3-({2-Carbamoyl-6-[4-(4-fluoro-phenoxy)-phenyl]-pyridin-4-yl}phenyl-amino)-propionic acid], the IC50 is 1.25 ± 0.03 µM.

Take `CN(c1ccccc1)c1cc(-c2ccc(Oc3ccc(C#N)cc3)cc2)cc(C(N)=O)n1` [compound 146, 4-[4-(4-Cyano-phenoxy)-phenyl]-6-(methyl-phenyl-amino)-pyridine2-carboxylic acid amide]: the IC50 stood at 0.09 ± 0.004 µM.

As for `CN(c1ccccc1)c1cc(C(N)=O)nc(-c2ccc(Oc3ccc(C#N)cc3)cc2)c1` [compound 147, 6-[4-(4-Cyano-phenoxy)-phenyl]-4-(methyl-phenyl-amino)-pyridine-2-carboxylic acid amide], the IC50 is 1.6 ± 0.26 µM.

`CN(c1ccccc1)c1cc(-c2ccc(Oc3ccc(C(F)(F)F)cc3)cc2)cc(C(N)=O)n1` [compound 148, 6-(Methyl-phenyl-amino)-4-[4-(4-trifluoromethyl-phenoxy)phenyl]-pyridine-2-carboxylic acid amide]: the half-maximal inhibitory concentration (IC50) worked out at 0.25 ± 0.08 µM. As to `CN(c1ccccc1)c1cc(C(N)=O)nc(-c2ccc(Oc3ccc(C(F)(F)F)cc3)cc2)c1` [compound 149, 4-(Methyl-phenyl-amino)-6-[4-(4-trifluoromethyl-phenoxy)phenyl]-pyridine-2-carboxylic acid amide], the IC50 is 10 to 20 µM.

Take `NC(=O)c1cc(N(CCc2nn[nH]n2)c2ccccc2)cc(-c2ccc(Oc3ccc(F)cc3)cc2)n1` [compound 150, 6-[4-(4-Fluoro-phenoxy)-phenyl]-4-{phenyl-[2-(2H-tetrazol-5-yl)-ethyl]-amino}-pyridine-2-carboxylic acid amide]: the half-inhibitory concentration (IC50) worked out at 0.46 ± 0.04 µM. Turning to `NC(=O)c1cc(-c2ccc(Oc3ccc(F)cc3)cc2)cc(N(CCc2nn[nH]n2)c2ccccc2)n1` [compound 151, 4-[4-(4-Fluoro-phenoxy)-phenyl]-6-{phenyl-[2-(2H-tetrazol-5-yl)-ethyl]-amino}-pyridine-2-carboxylic acid amide], the IC50 stood at 0.16 ± 0.03 µM.

For `O=C(O)c1cc(N(CCc2nn[nH]n2)c2ccccc2)cc(-c2ccc(Oc3ccc(F)cc3)cc2)n1` [compound 152, 6-[4-(4-Fluoro-phenoxy)-phenyl]-4-{phenyl-[2-(2H-tetrazol-5-yl)ethyl]-amino}-pyridine-2-carboxylic acid], the IC50 is 1.87 ± 0.68 µM. The same measure, in the same setting: in the case of `O=C(O)c1cc(-c2ccc(Oc3ccc(F)cc3)cc2)cc(N(CCc2nn[nH]n2)c2ccccc2)n1` [compound 153, 4-[4-(4-Fluoro-phenoxy)-phenyl]-6-{phenyl-[2-(2H-tetrazol-5-yl)ethyl]-amino}-pyridine-2-carboxylic acid] it was 2.13 ± 0.55 µM. On the same count and under the same terms, the value for `NC(=O)c1cc([C@H](O)CO)cc(-c2ccc(-c3ccc(F)cc3)cc2)n1` [compound 154, 4-((S)-1,2-Dihydroxy-ethyl)-6-(4′-fluoro-biphenyl-4-yl)pyridine-2-carboxylic acid amide] was 1.12 ± 0.07 µM. On the same count and under the same terms, the value for `NC(=O)c1cc([C@@H](O)CO)cc(-c2ccc(-c3ccc(F)cc3)cc2)n1` [compound 155, 4-((R)-1,2-Dihydroxy-ethyl)-6-(4′-fluoro-biphenyl-4-yl)pyridine-2-carboxylic acid amide] was 2.78 ± 0.61 µM; that for `NC(=O)c1cc(-c2ccc(Oc3ccc(OC(F)(F)F)cc3)cc2)cc([C@H](O)CO)n1` [compound 156, 6-((S)-1,2-Dihydroxy-ethyl)-4-[4-(4-trifluoromethoxy-phenoxy)phenyl]-pyridine-2-carboxylic acid amide] was 0.13 ± 0.02 µM; that for `NC(=O)c1cc(-c2ccc(Oc3ccc(OC(F)(F)F)cc3)cc2)cc([C@@H](O)CO)n1` [compound 157, 6-((R)-1,2-Dihydroxy-ethyl)-4-[4-(4-trifluoromethoxy-phenoxy)phenyl]-pyridine-2-carboxylic acid amide] was 0.12 ± 0.008 µM.

On to `NC(=O)c1cc(-c2ccc(Oc3cccc(OC(F)(F)F)c3)cc2)cc([C@H](O)CO)n1` [compound 158, 6-((S)-1,2-Dihydroxy-ethyl)-4-[4-(3-trifluoromethoxy-phenoxy)phenyl]-pyridine-2-carboxylic acid amide], for which the IC50 stood at 0.16 ± 0.01 µM. In the case of `NC(=O)c1cc([C@H](O)CO)cc(-c2ccc(Oc3ccc(OC(F)(F)F)cc3)cc2)n1` [compound 159, 4-((S)-1,2-Dihydroxy-ethyl)-6-[4-(4-trifluoromethoxy-phenoxy)phenyl]-pyridine-2-carboxylic acid amide], the 50% inhibitory concentration (IC50) was 0.3 ± 0.02 µM.
